This is an account of results in patent publication US4968826A, “Platinum complexes and antitumor agents containing them as an active ingredient” (Shionogi & Co., Ltd., priority 1989, dated 1990).

One data set deals with L1210/CDDP. As to the kind of experiment: Antitumor effect (ILS) in mice inoculated i.p. with cisplatin-resistant murine leukemia L1210/CDDP. The data set is classed as in vivo, murine leukemia cells in BDF1 mice. Conditions: for Number of mice surviving 30 days or longer: A: of 6 mice; for chemotherapy index (CI): from ILS30 and ILSmax, the greater, the more effective; for ILS30 (dose of achieving 30% ILS) / ILSmax (dose of achieving the maximum ILS): i.p. From the text: (§1) Antitumor activities against murine leukemia cells (L1210) and cisplatin-resistant murine leukemia cells (L1210/CDDP):
(§2) Murine leukemia L1210 (or L1210/CDDP) ascitic cells (1×10^5 cells) (5×10^5 cells for L1210/CDDP) were intraperitoneally inoculated to BDF1 mice (each group consisting 6~10 mice), and on the next day a predetermined amount of the test compound was intraperitoneally administered. 0.9% physiological saline was used as a solvent for injection.
(§3) From the average survival days (a) in each test group and those (b) of the non-treated control group, the increase of lifespan (ILS) was calculated according to the following formula. [formula]
(§4) As compared with the non-treated control group, the dose of achieving 30% ILS (ILS30) and the dose of achieving the maximum ILS (ILSmax) were obtained, from which the chemotherapy index (CI) was calculated. [formula]

A further data set deals with L1210. As to the kind of experiment: Antitumor effect (ILS) in mice inoculated i.p. with murine leukemia L1210. The data set is classed as in vivo, murine leukemia cells in BDF1 mice. Conditions: for Number of mice survived 30 days or longer: of 7 mice; for chemotherapy index (CI): from ILS30 and ILSmax, the greater, the more effective; for ILS30 (dose of achieving 30% ILS) / ILS max (dose of achieving the maximum ILS): i.p.
Text: as §1, §2, §3, §4

In the next data set the test system is Colon tumor 38. As to the kind of experiment: Antitumor activity against Colon tumor 38 transplanted in mice. Format: in vivo, BDF1 mice. Conditions: for chemotherapy index (CI): from ED50 and LD50, the greater, the more effective; for ED 50 (dose of 50% growth inhibition in the mean tumor size): i.v. on next day and 8th day after. An excerpt:
Antitumor activity against Colon tumor 38:
A tumor segment of Colon tumor 38 was transplanted beneath the dorsal skin of BDF1 mice (6 to 10 mice in each group), and the test compounds were intravenously administered on the next day and on the 8th day after the next day, respectively. As solvent for injection, 0.9% physiological saline was used.
Test Compounds A, C, D and E were same as those used in Experiment 1.

The test system of data set [1] is murine nucleated bone marrow cells. As to the kind of experiment: Hemotoxicity: nucleated bone marrow cell count (NBMC) in femora. Format: in vivo, male CDF1 mice. Conditions: 4 days after. From the text: (§5) Influence against murine nucleated bone marrow cell count, megakaryocyte count and platelet count in peripheral blood:
(§6) After a single intravenous administration of test compounds to male CDF1 mice (7 weeks old), hemotoxicity was investigated by counting the nucleated bone marrow cell in femora (NBMC), megakaryocyte (MEG) and platelet (PLT) in peripheral blood. Measuring timing was taken when the three indices reached the minimal value, namely 4 days after administration for NBMC, and 7 days after for MEG and PLT.
(§7) Changes in the counts of nucleated bone marrow cells (NBMC), megakaryocytes (MEG) and platelets (PLT) in peripheral blood induced by administration of the test compounds are shown as hemotoxicity, expressed as the ratio of the value of each index in the test group to that of the non-treated conrol group as a percentage.

A further data set concerns kidneys. As to the kind of experiment: Evaluation of nephrotoxicity in mice. The data set is classed as in vivo, male CDF1 mice. Conditions: for Creatinine / Urea nitrogen: mouse, in vivo, iv. The protocol:
Evaluation of nephrotoxicity in mice:
After a single intravenous administration of Test Compound A to male CDF1 mice (6 weeks old) at a rate of 160 or 320 mg/kg*, the levels of creatinine and urea nitrogen in plasma were measured. The mice were presented for pathological examination of kidneys four days after administration. (*: 320 mg/kg would be a lethal dose if the observation period was further extended.)

For a further data set, the system named is megakaryocytes. As to the kind of experiment: Hemotoxicity: megakaryocyte count (MEG). Format: in vivo, male CDF1 mice. Conditions: 7 days after.
Text: as §5, §6, §7

Data set [2] concerns platelets in peripheral blood. As to the kind of experiment: Hemotoxicity: platelet count (PLT) in peripheral blood. Format: in vivo, male CDF1 mice. Conditions: 7 days after.
Text: as §5, §6, §7

Where [3] appears, read: 30.0 mg/kg (1/6 LD90) single i.v.

Turning to “(1R,2R-Diaminocyclohexane)[1-hydroxy-1-cyclopentanecarboxylato(2-)-O^1,O^2 ]platinum (II) [Test Compound A]”, the Solubility in water is above 500 mg/mL. Besides, the “increase of lifespan (ILS)” value with L1210/CDDP (5 mg/kg i.p.) stood at 1%. Further, in the data set on L1210/CDDP (10 mg/kg i.p.), the “increase of lifespan (ILS)” value is given as 5%. In the data set with L1210/CDDP (20 mg/kg i.p.), the “increase of lifespan (ILS)” value is on record as above 50% and the “Number of mice surviving 30 days or longer” value is recorded as 2. In addition, the “increase of lifespan (ILS)” value in the data set with L1210/CDDP (40 mg/kg i.p.) is on record as above 56%. For the same compound, the “Number of mice surviving 30 days or longer” value with L1210/CDDP (40 mg/kg i.p., B: of 7 mice) stood at 2. Moreover, the “increase of lifespan (ILS)” value with L1210/CDDP (80 mg/kg i.p.) was above 110%. For the same compound, the “Number of mice surviving 30 days or longer” value in the data set with L1210/CDDP (80 mg/kg i.p., B: of 7 mice) was determined as 4. The “increase of lifespan (ILS)” value with L1210/CDDP (160 mg/kg i.p.) was 1%. Also, in the data set on L1210/CDDP, the “chemotherapy index (CI)” value came to 5.5, the “ILS30 (dose of achieving 30% ILS)” value is 14.5 mg/kg and the “ILSmax (dose of achieving the maximum ILS)” value turned out to be 80 mg/kg. Further, the “increase of lifespan (ILS)” value in the data set with L1210 (5 mg/kg i.p.) amounted to 10%. The “increase of lifespan (ILS)” value in the data set with L1210 (10 mg/kg i.p.) is given as 16%. Moreover, the “increase of lifespan (ILS)” value in the data set on L1210 (20 mg/kg i.p.) is reported as 19%. In the data set on L1210 (40 mg/kg i.p.), the “increase of lifespan (ILS)” value is 37% and the “Number of mice survived 30 days or longer” value is 1. Further, in the data set on L1210 (80 mg/kg i.p.), the “increase of lifespan (ILS)” value is given as above 81% and the “Number of mice survived 30 days or longer” value was determined as 3. Also, in the data set on L1210 (160 mg/kg i.p.), the “increase of lifespan (ILS)” value is reported as above 168% and the “Number of mice survived 30 days or longer” value is 1. The “increase of lifespan (ILS)” value in the data set with L1210 (320 mg/kg i.p.) was 14%. For the same compound, in the data set with L1210, the “chemotherapy index (CI)” value is given as 5.2, the “ILS30 (dose of achieving 30% ILS)” value is given as 31 mg/kg and the “ILS max (dose of achieving the maximum ILS)” value (shortened to “ILS max”) is 160 mg/kg. Also, in the data set on Colon tumor 38, the “chemotherapy index (CI)” value is given as 2.7 and the “ED 50 (dose of 50% growth inhibition in the mean tumor size)” value was 164.9 mg/kg. Further, the “Hemotoxicity NBMC (ratio to non-treated control)” value in data set [1] (31.0 mg/kg single i.v.) was 108 percentage. Further, the “Hemotoxicity NBMC (ratio to non-treated control)” value in data set [1] (62.0 mg/kg (1/5 LD90) single i.v.) is 87 percentage. Moreover, in the data set on kidneys (160 mg/kg), the Creatinine stood at 0.26 and the Urea nitrogen came out at 22.6 mg/dL. For the same compound, in the data set on kidneys (320 mg/kg), the Creatinine was 0.27 and the Urea nitrogen came to 23.3 mg/dL. Besides, the lethal dose in the data set on kidneys (single i.v., male CDF1 mice, if the observation period was further extended) is given as 320 mg/kg.

With `N.N.[Cl][Pt][Cl]` [Test Compound D, Cisplatin, reference compound], in the data set on L1210/CDDP, the “ILS30 (dose of achieving 30% ILS)” value was “ineffective”. Moreover, in the data set with L1210, the “ILS30 (dose of achieving 30% ILS)” value was found to be 2.7 mg/kg and the “ILS max” value turned out to be 10 mg/kg. In addition, the “ED 50 (dose of 50% growth inhibition in the mean tumor size)” value in the data set on Colon tumor 38 turned out to be 18.3 mg/kg.

For `N.N.O=C([O-])C1(C(=O)[O-])CCC1.[Pt+2]` [Test Compound E, Carboplatin], the Solubility in water came out at 16 mg/mL. In addition, the “ILS30 (dose of achieving 30% ILS)” value in the data set on L1210/CDDP is on record as “ineffective”. Moreover, the “ED 50 (dose of 50% growth inhibition in the mean tumor size)” value in the data set with Colon tumor 38 is given as “Ineffective”. Besides, in data set [1] (setting [3]), the “Hemotoxicity NBMC (ratio to non-treated control)” value is on record as 78 percentage. In data set [1] (60.0 mg/kg single i.v.), the “Hemotoxicity NBMC (ratio to non-treated control)” value worked out at 75 percentage. Also, the “Hemotoxicity NBMC (ratio to non-treated control)” value in data set [1] (120.0 mg/kg single i.v.) is recorded as 28 percentage. Further, the “Hemotoxicity MEG (ratio to non-treated control)” value with megakaryocytes (setting [3]) was found to be 60 percentage. In the data set on megakaryocytes (60.0 mg/kg single i.v.), the “Hemotoxicity MEG (ratio to non-treated control)” value is given as 45 percentage. Besides, the “Hemotoxicity MEG (ratio to non-treated control)” value in the data set on megakaryocytes (120.0 mg/kg single i.v.) came out at 8 percentage. For the same compound, in data set [2] (setting [3]), the “Hemotoxicity PLT (ratio to non-treated control)” value amounted to 89 percentage. The “Hemotoxicity PLT (ratio to non-treated control)” value in data set [2] (60.0 mg/kg single i.v.) is 65 percentage. Moreover, in data set [2] (120.0 mg/kg single i.v.), the “Hemotoxicity PLT (ratio to non-treated control)” value came to 35 percentage.

Regarding “(1R,2R-Diaminocyclohexane)[2-hydroxy-2-methylbutyrato(2-)-O^1, O^2 -]platinum (II) [Test Compound C]”, in the data set on Colon tumor 38, the “chemotherapy index (CI)” value was 4.3 and the “ED 50 (dose of 50% growth inhibition in the mean tumor size)” value worked out at 106.2 mg/kg.

“(1R,2R-Diaminocyclohexane)[1-hydroxy-1-cyclopropanecarboxylato(2-)-O^1,O^2 ]platinum (II) [Test Compound B]” gave a Solubility in water of 30 mg/mL. For the same compound, the “increase of lifespan (ILS)” value with L1210/CDDP (5 mg/kg i.p.) amounted to 6%. Further, the “increase of lifespan (ILS)” value in the data set with L1210/CDDP (10 mg/kg i.p.) is recorded as 14%. In addition, in the data set on L1210/CDDP (20 mg/kg i.p.), the “increase of lifespan (ILS)” value was 4%. The “increase of lifespan (ILS)” value in the data set with L1210/CDDP (40 mg/kg i.p.) is given as above 93%. For the same compound, the “Number of mice surviving 30 days or longer” value in the data set on L1210/CDDP (40 mg/kg i.p., B: of 7 mice) stood at 3. In addition, the “increase of lifespan (ILS)” value in the data set with L1210/CDDP (80 mg/kg i.p.) was above 179%. The “Number of mice surviving 30 days or longer” value in the data set with L1210/CDDP (80 mg/kg i.p., B: of 7 mice) is reported as 6. Moreover, in the data set with L1210/CDDP (160 mg/kg i.p.), the “increase of lifespan (ILS)” value is recorded as -16%. Further, in the data set on L1210/CDDP, the “chemotherapy index (CI)” value came to 3.3, the “ILS30 (dose of achieving 30% ILS)” value is recorded as 24 mg/kg and the “ILSmax (dose of achieving the maximum ILS)” value stood at 80 mg/kg. Moreover, in the data set on L1210 (10 mg/kg i.p.), the “increase of lifespan (ILS)” value is given as 10%. In addition, in the data set with L1210 (20 mg/kg i.p.), the “increase of lifespan (ILS)” value came out at 21%. Moreover, the “increase of lifespan (ILS)” value in the data set with L1210 (40 mg/kg i.p.) was found to be 22%. In the data set with L1210 (80 mg/kg i.p.), the “increase of lifespan (ILS)” value is given as 66%. In the data set with L1210 (160 mg/kg i.p.), the “increase of lifespan (ILS)” value is above 83% and the “Number of mice survived 30 days or longer” value is 2. Besides, in the data set with L1210, the “chemotherapy index (CI)” value was 3.6, the “ILS30 (dose of achieving 30% ILS)” value was 45 mg/kg and the “ILS max” value amounted to 160 mg/kg.
